Test [1] concerns E. coli CFT073. The experiment in a line: Antibacterial experiment: VD3-stimulated 5637 bladder cells co-incubated with E. coli CFT073, CFU of cell lysate. Conditions: 5637 cells stimulated by VD3 at different concentrations, FIG. 3. Type of test: cell-based. How it is done:
In this study, the final activated form of vitamin D, 1,25-dihydroxyvitamin D3 [1,25(OH)2D3] was the test substance, the human bladder cancer cells 5637 was used as experimental systems, the E. coli CFT073 was antibacterial target, cells treated by 1,25(OH)2D3 was co-incubated with E. coli CFT073. The E. coli CFT073 colony forming units (CFU) was used to examine whether 1,25(OH)2D3 achieved an antibacterial effect by stimulating cell lines derived from human to secrete antimicrobial peptides in vitro.
5637 cells in the condition of exponential growth and about 90% confluence were digested by pancreatin (GIBCO, Cat. No. 25200-056) for 5 min. When most of the cells came off from the culture plate, complete medium was added to terminate digestion. The non-peeling cells were blown down from the culture plate by a pipette, and were transferred to a 15 ml centrifuge tube. The cells were centrifuged at 1500 rpm for three minutes. The supernatant was discarded. The cell deposit was resuspended in complete medium to ensure that the cells uniformly dispersed.
(§1) The cell suspension was counted by hemacytometer;
The concentration of cell suspension was adjusted to 4×10^5/mL using incomplete RPMI 1640 medium;
Each well of 6-well plate was inoculated with 2 mL cell suspension, the total number of cells per well was 8×10^5;
6-well plate was placed in an incubator under the condition of 37° C., 5% CO2. […]

The next test concerns LL-37. The experiment in a line: ELISA of LL-37 in lysate of VD3-stimulated 5637 cells. Type of test: cell-based, human. Conditions: 5637 cells stimulated with VD3 at different concentrations, FIG. 4. As to the method:
3.2 ELISA Experiments about Effect of 1,25 (OH)2D3 on LL-37 Production 3.2.1 the Procedure of Inoculation (Day1), Administration (Day2), and E. coli infection bacteria solution preparation (Day 2&3) was the same as 3.1.1, 3.1.2 and 3.1.3.
Cell lysate was obtained using the method of 3.1.4. Cell debris and bacteria were removed by 13000 rpm centrifugation for 5 min. Lysate supernatant was fetched out and LL-37 was quantified by Human LL-37 ELISA Kit (Hycult, Cat. No. HK321).

For a further test, the system named is E. coli O111B4. Description: Antibacterial experiment: supernatant of VD3-stimulated U-937 cells co-incubated with E. coli O111B4, colony count. Type of test: cell-based. Conditions: for CFU: U937 supernatant. As to the method:
In this study, the final activated form of vitamin D, 1,25-dihydroxyvitamin D3 [1,25 (OH)2D3] was the test substance. The lymphoma U-937 cells of human tissue cell were used as experimental systems, the E. coli O111B4 was the antibacterial target. Cell supernatants treated by 1,25(OH)2D3 was co-incubated with E. coli O111B4. The E. coli O111B4 colony forming units (CFU) was used to examine whether 1,25(OH)2D3 achieved an antibacterial effect by stimulating cell lines derived from human to secrete antimicrobial peptides in vitro.
U-937 cells in the condition of exponential growth were centrifuged (1000 rpm, 5 min);
After centrifugation, the supernatant was discarded, and cell sediment was resuspended in an appropriate amount of RPMI1640 incomplete medium to make sure cells dispersed uniformly;
The cell suspension was counted by hemacytometer counting;
The concentration of cell suspension was adjusted to 1×10^5/mL using RPMI 1640 incomplete medium;
Each well of 6-well plate was inoculated with 3 mL cell suspension, the total number of cells per well was 3×10^5;
According to the label and the experimental design, 10 μL 200× test solution or vehicle of various concentrations with 0.5% (v/v) dose volume was added to each well.
Each dose was repeated in two parallel wells, one well harvested after 24 hours, and the other well harvested after 48 hours;
After administration, the 6-well plate was placed in 37° C., 5% CO2 incubator, cultured for 24 hours and 48 hours respectively.
Day 1 afternoon, a E. coli O111B4 glycerol pipe was thawed, 10 μL glycerol bacteria was inoculated in 10 mL of LB liquid medium without any antibiotic, and was cultured on oscillator at 37° C. overnight; Day 2 morning, 200 μL cultured broth (1:100 ratio) cultured overnight was transferred to 20 mL LB liquid medium without any antibiotics and was cultured on oscillator at 37° C. until OD600 was 0.6-1.0, then the next step was antibacterial experiment (Day 3); the remaining overnight cultured broth was stored in the refrigerator at 2-8° C. until needed.
Day 2 afternoon, 10 μL overnight cultured broth was inoculated in 10 mL LB medium without any antibiotics, and was cultured on oscillator at 37° C. overnight;
Day 3 morning, 200 μL overnight cultured broth (1:100 ratio) was transferred to 20 mL LB medium without any antibiotics, and was cultured on oscillator at 37° C. until OD600 was 0.6-1.0, then the next step was antibacterial experiment (Day 3).
Before the experiment started, 1.5% agar plate (lower medium) prepared beforehand was placed at room temperature for at least one hour;
Top agar medium (containing 0.8%/agar) was melted, and packaged. Each 1.6 mL of Top agar medium was packaged in each tube, and then the small tube was placed in 45° C. water bath to keep warm;
10 mL E. coli bacteria of OD600 0.6-1.0 was transferred into 50 mL centrifuge tubes to centrifuge (1000 rpm×5 min); After centrifugation, the supernatant was discarded, the bacteria precipitate was resuspended by adding 10 mL PBS; the above-described bacterial suspension was diluted 1×10^5 fold in PBS dilution by multiple proportion dilution (from 10-fold); After the drug action finished (24 hours or 48 hours), U-937 cells was centrifugated (1000 rpm, 5 min). After centrifugation, the supernatant was drawn back;
Each centrifuge tube previously added 50 μL diluted bacterial suspension (approximately 150-250 bacteria);
Bacterial suspension were added with 1.2 mL cell supernatant from each cell supernatant, and mixed;
The supernatant/bacterial mixture was placed on shaking table (200 rpm) at 37° C. and was incubated for 90 minutes. After incubation, the next step was plating;
Plating: 0.8 mL of cell supernatant/broth mixture was mixed with 1.6 mL top agar medium, the mixture was plated on 1.5% agar plates, 600 uL per well in triplicate.
Sterility test: 800 uL PBS and 1.6 mL top agar medium was mixed, and plated as above. […]

The subject of test [2] is E. coli CFT073. Description: Antibacterial experiment: VD3-stimulated SV-HUC1 urethral epithelial cells co-incubated with E. coli CFT073, CFU of cell lysate. It counts as cell-based. Conditions: SV-HUC1 cells stimulated by VD3 at different concentrations, FIG. 5. How it is done: In this study, with the final activated form of vitamin D3, 1,25-dihydroxyvitamin D3 [1,25 (OH)2D3] as the test substance, the immortalized human urethral epithelial cells SV-HUC1 as experimental systems, the E. coli CFT073 as antibacterial target, the cells treated by 1,25 (OH) 2D3 were co-incubated with E. coli CFT073. The E. coli CFT073 colony forming units (CFU) were used to examine whether 1,25 (OH) 2D3 achieves an antibacterial effect by stimulating cell lines derived from human to secrete antimicrobial peptides in vitro.
SV-HUC1 cells in the condition of exponential growth and about 90% confluence were digested by pancreatin (GIBCO, Cat. No. 25200-056) for 5 min. When most of the cells came off from the culture plate, complete medium was added to terminate digestion. The non-peeling cells were blown down from the culture plate by a pipette, and were transferred to a 15 ml centrifuge tube. The cells were centrifuged at 1500 rpm for three minutes. The supernatant was discarded. The cell deposit was resuspended in complete medium to ensure that the cells dispersed uniformly.
as §1
The concentration of cell suspension was adjusted to 4×10^5/mL using F12 incomplete medium;
Each well of 6-well plate was inoculated with 2 mL cell suspension, the total number of cells per well was 8×10^5; […]

Turning to `C=C1/C(=C\C=C2/CCC[C@]3(C)[C@@H]([C@H](C)CCCC(C)(C)O)CC[C@@H]23)C[C@@H](O)C[C@@H]1O` [VD3, 1,25-dihydroxyvitamin D3], the “antibacterial effect (relative CFU of 5637 cell lysate vs ethanol control)” value with E. coli CFT073 [1] was “significant antibacterial effect”. Besides, in the test with LL-37, the “LL-37 levels in cell lysates” value is “significant dose-dependent increase”. In addition, the CFU with E. coli O111B4 (High dose, VD3 10^−7M, Day 1, Serum 10%) is on record as 172; in the test on E. coli O111B4 (High dose, VD3 10^−7M, Day 2, Serum 1%), 112; in the test with E. coli O111B4 (High dose, VD3 10^−7M, Day 2, Serum 10%), 127; in the test on E. coli O111B4 (High dose, VD3 10^−7N, Day 1, Serum 1%), 108; in the test on E. coli O111B4 (Low Dose, VD3 10^−8M, Day 1, Serum 1%) it was 102; with E. coli O111B4 (Low Dose, VD3 10^−8M, Day 1, Serum 10%), 112. Also, the CFU in the test with E. coli O111B4 (Low Dose, VD3 10^−8M, Day 2, Serum 1%) worked out at 93; in the test on E. coli O111B4 (Low Dose, VD3 10^−8M, Day 2, Serum 10%) it was 97. Also, in the test with E. coli O111B4 (U937 cells stimulated by different concentrations of VD3), the “antibacterial effect of supernatant solution” value is “significant antibacterial effect”. In addition, in the test on E. coli CFT073 [2], the “antibacterial activity of cell lysates” value is on record as “significant antibacterial activity”.
For `CC1(C)S[C@@H]2[C@H](NC(=O)[C@H](N)c3ccccc3)C(=O)N2[C@H]1C(=O)O` [antibiotic control group, ampicillin], the colonies produced entry in the test with E. coli O111B4 (antibiotics control experiment: PBS, broth, 2 uL ampicillin, top agar) is “no colonies produced”.

The record behind these values is US20160324876A1, “VITAMIN D AND ANTIBACTERIAL USES OF COMPOSITIONS THEREOF” (ZENSUN SCIENCE & TECHNOLOGY LIMITED, priority 2014, published 2016).
